# Measurements published in patent US10047093B2, “Substituted imidazo[1,2-B]pyridazines as protein kinase inhibitors” (Tolero Pharmaceuticals, Inc., priority 2011, dated 2018).
# What was measured:
# Pim-1 kinase = Pim-1 kinase (Homo sapiens (Human), UniProt P11309); test: Pim-1 kinase inhibition assay (Promega Kinase-Glo); type: biochemical; conditions: read-out: IC50 on Pim1
# Text: One illustrative manner in which Pim-1 kinase activity can be determined is by quantifying the amount of ATP remaining in solution after an in vitro Pim-1 kinase reaction. The Kinase-Glo Assay Kit (Promega, Inc., Madison, Wis.) allows this. The amount of ATP remaining in the solution after the kinase reaction serves as a substrate for the luciferase to catalyze luciferin to oxyluciferin plus one photon of light. Thus, the luminescent signal read by the Luminoskan Ascent Instrument (Thermo Electron Corp., Milford, Mass.) correlates with the amount of ATP present after the kinase reaction and inversely correlates with the amount of kinase activity. […] These assays are set up in duplicate 50 ul volumes in white, flat bottom 96 well plates. […] This solution is incubated at 30 degrees Celsius at 360 rpm for two hours. Following the incubation, 50 ul of Kinase-Glo reagent is added to each well, including all positive and negative control wells, and incubated at room temperature for 15 minutes. […] The IC50 values can then be calculated for each inhibitor tested.
# MV-4-11 (FLT3-ITD) = test: MV-4-11 mouse xenograft; type: in vivo; conditions: MV-4-11 (FLT3-ITD) established xenografts
# Text: (§1) Male and female Nu/Nu mice were purchased from Harlan Sprague Dawley (Indianapolis, Ind.). Female Nu/Nu mice were used for all xenograft evaluations with the exception of the PC-3 xenografts where male Nu/Nu mice were used. Cell lines were expanded in vitro in complete media, and if adherent were harvested by trypsin-EDTA, centrifuged and resuspended in PBS 1:1 with Matrigel (BD Bioscienes). Cells were inoculated subcutaneously in the right hind flank of mice. When tumors reached 100-200 mm^3 by caliper measurement, mice were randomized and dosing of SGI-9481 or vehicle control began and continued every day for 5 days (QDx5) with 2 days off for 18-21 days. Tumor volumes and body weights were determined twice a week, and tumor weights were measured at the completion of the translational xenograft studies.
# UM-UC-3 = test: In vitro viability/proliferation assay, UM-UC-3; type: cell-based; conditions: Homo sapiens, UMUC3; bladder line UM-UC-3
# Method: (§2) Adherent or suspension cancer cell lines were seeded at 2000-5000 cells/well in a 96-well plate, or 1000-2000 cells/well in a 384-well plate. Suspension cells were treated with drug the same day as seeding, while adherent cells were incubated overnight at 37° C. in 5% CO2 prior to drug treatment. All cells were treated for 72 hours, then lysed with ATPlite (Perkin Elmer) and measured on an Envision microplate reader. IC50 values were determined using GraphPad Prism software.
# (§3) Over 35 cell lines were tested, and the most sensitive cell lines from various indications were selected and verified by multiple EC50 determinations (FIG. 6). […] Anti-proliferative activity using PIM-2 shRNA against FLT3-ITD driven leukemia lines has been observed (Adam (2006) Cancer Res 66:3828-35 data not shown).
# UM-UC-3 xenograft tumors = test: UM-UC-3 established mouse xenograft; type: in vivo
# Text: as §1, with “When tumors reached 100-200 mm^3 by caliper measurement, mice were randomized and dosing of SGI-9481 or vehicle control began and continued every day for 5 days (QDx5) with 2 days off for 18-21 days.” left out
# PC-3 xenograft tumors = test: PC-3 established mouse xenograft; type: in vivo
# Text: as §1, with “When tumors reached 100-200 mm^3 by caliper measurement, mice were randomized and dosing of SGI-9481 or vehicle control began and continued every day for 5 days (QDx5) with 2 days off for 18-21 days.” left out
# [1] = tested on: ML-2 cells (wild-type FLT3); test: ML-2 mouse xenograft; type: in vivo; conditions: ML-2 (wild-type FLT3) xenograft
# Text: as §1
# hematological cell lines = test: In vitro viability assay, panel of hematological cell lines; type: cell-based; conditions: most sensitive hematological cell lines
# Method: as §2, §3
# [2] = 125 mg/kg, less than with 200 mg/kg
# Sequence of Pim-1 kinase (P11309 whole entry): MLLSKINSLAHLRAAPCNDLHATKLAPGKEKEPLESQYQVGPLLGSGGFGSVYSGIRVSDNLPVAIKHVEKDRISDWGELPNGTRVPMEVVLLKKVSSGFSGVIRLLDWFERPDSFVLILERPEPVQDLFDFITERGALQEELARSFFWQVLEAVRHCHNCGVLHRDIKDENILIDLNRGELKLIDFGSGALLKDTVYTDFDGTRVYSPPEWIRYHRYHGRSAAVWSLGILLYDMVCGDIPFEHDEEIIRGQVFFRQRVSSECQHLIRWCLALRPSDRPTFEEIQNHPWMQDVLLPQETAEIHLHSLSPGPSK
Compound,IC50 (Pim-1 kinase) [µM],tumor growth of established xenografts (MV-4-11 (FLT3-ITD)),EC50 (UM-UC-3) [µM],tumor growth inhibition (UM-UC-3 xenograft tumors; [2]),body weight and gross adverse toxicity (UM-UC-3 xenograft tumors; oral dosing of 200 mg/kg),tumor growth measured by volume (caliper) and by final tumor weight (UM-UC-3 xenograft tumors; oral dosing of 200 mg/kg),tumor growth inhibition (PC-3 xenograft tumors; [2]),body weight and gross adverse toxicity (PC-3 xenograft tumors; oral dosing of 200 mg/kg),tumor growth measured by volume (caliper) and by final tumor weight (PC-3 xenograft tumors; oral dosing of 200 mg/kg),tumor growth [1],EC50 (hematological cell lines) [µM]
"4-(((3-(3-(Trifluoromethyl)phenyl)-[1,2,4]triazolo[4,3-a]pyridin-6-yl)amino)methyl)tetrahydro-2H-thiopyran 1,1-dioxide [Compound 8-111]",> 30,,,,,,,,,,
"C[C@]1(O)CC[C@H](Nc2ccc3nnc(-c4cccc(OC(F)(F)F)c4)n3c2)CC1 [Compound 8-100, 1-Methyl-4-((3-(3-(trifluoromethoxy)phenyl)-[1,2,4]triazolo[4,3-a]pyridin-6-yl)amino)-trans-cyclohexanol]",1.64,,,,,,,,,,
CC(C)(O)[C@H]1CC[C@H](Nc2ccc3ncc(-c4cccc(C(F)(F)F)c4)n3n2)CC1 [Compound 8-31],,induced regressions,1 to 2,significant tumor growth inhibition,no significant changes in body weight or gross adverse toxicity,significantly reduced,significant tumor growth inhibition,no significant changes in body weight or gross adverse toxicity,significantly reduced,significant tumor growth inhibition,1 to 2
